From paper PMC3250956, “Functional characterization and analgesic effects of mixed cannabinoid receptor/T-type channel ligands” (Molecular Pain, 2011)

Assays:
rat 5-HT2C = biological target: T1, rat 5-HT2C (Rattus norvegicus, UniProt P08909); assay: Primary radioligand competitive binding assay, [3H]mesulergine; settings: ligand 10 μM, HEK293 cells
T1 construct: expressed in transfected cells; host or cells: HEK293 (Flp-In system, pcDNA5.0FRT)
T1 sequence (P08909 33-460): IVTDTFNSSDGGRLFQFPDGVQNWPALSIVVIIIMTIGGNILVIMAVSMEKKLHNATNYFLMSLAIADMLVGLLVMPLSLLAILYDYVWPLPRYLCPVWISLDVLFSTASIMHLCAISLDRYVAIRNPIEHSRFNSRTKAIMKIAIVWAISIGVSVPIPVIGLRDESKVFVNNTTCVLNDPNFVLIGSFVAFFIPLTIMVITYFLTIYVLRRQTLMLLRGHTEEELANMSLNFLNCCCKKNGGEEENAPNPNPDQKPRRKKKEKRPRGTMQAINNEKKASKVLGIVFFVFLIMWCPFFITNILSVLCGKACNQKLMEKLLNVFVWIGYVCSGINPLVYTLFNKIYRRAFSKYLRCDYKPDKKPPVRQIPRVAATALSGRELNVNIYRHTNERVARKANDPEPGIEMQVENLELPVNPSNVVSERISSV
Method: (§1) HEK293 cells and CHO cells were used in the radioligand binding assay while tsA-201 cells were used in the electrophysiological study. Human CB2, human 5-HT2A, rat 5-HT2C used in the binding studies were cloned into pcDNA5.0FRT and cell lines were made using the FlpIn system from Invitrogen. tsA-201 cell culture and transient calcium channel transfection were performed as described previously. In brief, tsA-201 cells were transfected using the calcium phosphate method. Cav3.1, 3.2 and 3.3 α1 subunits were transfected individually with yellow fluorescent protein as a transfection marker.
(§2) Radioligand binding data were obtained using National Institute of Mental Health's Psychoactive Drug Screening Program (NIMH/PDSP) using the same protocol described for CB1 and CB2 binding experiments. Transfected HEK293 (human 5-HT2A or rat 5-HT2C) cells were used. The radioligands were [^3H]ketanserin (0.5 nM) and [^3H]mesulergine (0.5 nM) for respectively 5-HT2A and 5-HT2C experiments. Non-specific binding was determined in the presence of 10 μM chlorpromazine for both 5-HT2A and 5-HT2C binding experiments. Cells were harvested and homogenized in 50 mM Tris HCl, 10 mM MgCl2, 0.1 mM EDTA, pH 7.4. Incubation of radioreceptor binding assay mixtures was 1.5 hours at room temperature in the dark.

human 5-HT2A = biological target: T2, human 5-HT2A (Homo sapiens, UniProt P28223); assay: Primary radioligand competitive binding assay, [3H]ketanserin; settings: ligand 10 μM, HEK293 cells
T2 construct: expressed in transfected cells; host or cells: HEK293 (Flp-In system, pcDNA5.0FRT)
Method: as §1, §2

Human CB2 [1] = biological target: T3, Human CB2 (Homo sapiens, UniProt P34972); assay: Radioligand competitive binding, [3H]CP55940, HEK293 cells; design: expressed in transfected cells; settings: for Ki: NA: not active at 1 μM, read-out: Mean Ki Human CB2; for Human CB2 (%) primary radioligand competitive binding: ligand 10 μM, HEK293 cells
Method: as §1
(§3) CB1 and CB2 radioligand binding data were obtained using National Institute of Mental Health (NIMH) Psychoactive Drug Screening Program (PDSP) resources as described earlier. Compounds were screened in a competitive binding experiment using, respectively, membrane fractions prepared from rat brain homogenate expressing CB1 receptor and HEK293 cells expressing the human CB2 receptor. Experiments were conducted at a range of different concentrations and in duplicate. The competition binding experiment for CB1 and CB2 was performed in 96 well plates containing Standard Binding Buffer (50 mM Tris HCl, 1 mM EDTA, 3 mM MgCl2, 5 mg/ml fatty acid-free BSA, pH 7.4). The radioligand was [^3H]CP55940, and the reference compound was CP55940. A solution of the compound to be tested was prepared as a 1 mg/ml stock in DMSO and then diluted in Standard Binding Buffer by serial dilution. Radioligand was diluted to five times the assay concentration in Standard Binding Buffer. Aliquots (50 μl) of radioligand were dispensed into the wells of a 96-well plate containing 100 μl of Standard Binding Buffer. Then, duplicate 50-μl aliquots of the test and reference compound dilutions were added. Finally, crude membrane fractions of cells were resuspended in 3 ml of chilled Standard Binding Buffer and homogenized by several passages through a 26 gauge needle, then 50 μl were dispensed into each well. The 250-μl reactions were incubated at room temperature for 1.5 hours, and then harvested by rapid filtration onto Whatman GF/B glass fiber filters pre-soaked with 0.3% polyethyleneimine using a 96-well Brandel harverster. Four rapid 500-μl washes were performed. Filters were placed in 6-ml scintillation tubes and allowed to dry overnight. Bound radioactivity was harvested onto 0.3% polyethyleneimine-treated, 96-well filter mats using a 96-well Filtermate harvester. The filter mats were dried, then scintillant was melted onto the filters and the radioactivity retained on the filters counted in a Microbeta scintillation counter. Raw data (dpm) representing total radioligand binding (i.e., specific + non-specific binding) were plotted as a function of the logarithm of the molar concentration of the competitor (i.e., test or reference compound). Non-linear regression of the normalized (i.e., percent radioligand binding compared to that observed in the absence of test or reference compound) raw data was performed in Prism 4.0 (GraphPad Software) using the built-in three parameter logistic model describing ligand competition binding to radioligand-labeled sites: y = bottom + [(top-bottom)/(1 + 10 × -logIC50)] where bottom equals the residual radioligand binding measured in the presence of 10 μM reference compound (i.e., non-specific binding) and top equals the total radioligand binding observed in the absence of competitor. The log IC50 (i.e., the log of the ligand concentration that reduces radioligand binding by 50%) is thus estimated from the data and used to obtain the Ki by applying the Cheng-Prusoff approximation: Ki = IC50/(1 + [ligand]/KD) where [ligand] equals the assay radioligand concentration and KD equals the affinity constant of the radioligand for the target receptor.

Rat CB1 = biological target: T4, Rat CB1 (Rattus norvegicus, UniProt P20272); assay: Radioligand competitive binding, [3H]CP55940, rat brain homogenate; settings: for Ki: NA: not active at 1 μM, read-out: Mean Ki Rat CB1; for Rat CB1 (%) primary radioligand competitive binding: ligand 10 μM, rat brain homogenates
T4 construct: membrane fractions prepared from rat brain homogenate expressing CB1 receptor; from tissue; host or cells: rat brain homogenate
Method: as §3

Human CB2 [2] = biological target: T3, Human CB2; assay: GTPγ[35S] functional assay, CHO cell membrane extracts; format: biochemical; design: expressed in transfected cells; host or cells: CHO cells (membrane extracts)
Human CB1 = Human CB1 (Homo sapiens, UniProt P21554); assay: as above; settings: NA: not active at 1 μM
Human CB1, sequence (P21554 whole entry): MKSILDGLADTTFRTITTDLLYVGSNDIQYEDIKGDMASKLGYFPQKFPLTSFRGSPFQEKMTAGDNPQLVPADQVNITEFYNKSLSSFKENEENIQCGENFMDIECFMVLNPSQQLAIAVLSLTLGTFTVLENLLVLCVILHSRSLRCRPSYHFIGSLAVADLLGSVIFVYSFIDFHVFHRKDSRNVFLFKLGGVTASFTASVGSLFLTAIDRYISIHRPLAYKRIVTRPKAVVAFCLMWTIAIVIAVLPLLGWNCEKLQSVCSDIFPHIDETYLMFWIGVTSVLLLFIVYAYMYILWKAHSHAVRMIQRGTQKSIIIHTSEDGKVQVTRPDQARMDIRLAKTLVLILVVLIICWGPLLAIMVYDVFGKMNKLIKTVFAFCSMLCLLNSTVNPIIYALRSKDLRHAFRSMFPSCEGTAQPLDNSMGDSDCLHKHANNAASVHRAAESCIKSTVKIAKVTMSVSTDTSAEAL
Method: Functional activity was evaluated using GTPγ[^35S] assay in CHO cell membrane extracts expressing recombinant human CB1 or CB2 receptors as we previously described [51]. Compounds were solubilized in 100% DMSO at a concentration of 10 mM within 4 hours of the first testing session. A predilution for the dose response curve was performed in 100% DMSO and then diluted 100 fold in assay buffer at a concentration 2 fold higher than the concentration to be tested. […] Membranes were mixed with GDP diluted in assay buffer to give 30 μM solution (volume:volume) and incubated for at least 15 min on ice. In parallel, GTPγ[^35S] (GE Healthcare, Catalogue number SJ1308) were mixed with the beads (PVT-WGA (GE Healthcare, RPNQ001)), diluted in assay buffer at 50 mg/ml (0.5 mg/10 μl) (volume:volume) just before starting the reaction. The following reagents were successively added in the wells of an Optiplate (Perkin Elmer): 50 μl of ligand, 20 μl of the membranes:GDP mix, 10 μl of assay buffer for agonist testing, and 20 μl of the GTPγ[^35S]:beads mix. The plates were covered with a topseal, shacked on an orbital shaker for 2 min, and then incubated for 1 hour at room temperature. Then the plates were centrifuged for 10 min at 2000 rpm and counted for 1 min/well with a PerkinElmer TopCount reader. […] For replicate determinations, the maximum variability tolerated in the test was of ± 20% around the average of the replicates.

T3 sequence (P34972 whole entry): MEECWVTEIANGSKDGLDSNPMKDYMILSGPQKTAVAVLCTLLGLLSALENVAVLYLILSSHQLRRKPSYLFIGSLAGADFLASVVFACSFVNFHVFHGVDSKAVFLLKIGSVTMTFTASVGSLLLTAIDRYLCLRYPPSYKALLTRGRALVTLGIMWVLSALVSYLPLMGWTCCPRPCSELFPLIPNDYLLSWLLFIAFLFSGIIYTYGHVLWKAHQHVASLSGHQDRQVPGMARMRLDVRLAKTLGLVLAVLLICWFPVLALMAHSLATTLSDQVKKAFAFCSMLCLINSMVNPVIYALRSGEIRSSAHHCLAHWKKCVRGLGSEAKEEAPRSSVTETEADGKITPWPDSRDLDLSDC
T4 sequence (P20272 whole entry): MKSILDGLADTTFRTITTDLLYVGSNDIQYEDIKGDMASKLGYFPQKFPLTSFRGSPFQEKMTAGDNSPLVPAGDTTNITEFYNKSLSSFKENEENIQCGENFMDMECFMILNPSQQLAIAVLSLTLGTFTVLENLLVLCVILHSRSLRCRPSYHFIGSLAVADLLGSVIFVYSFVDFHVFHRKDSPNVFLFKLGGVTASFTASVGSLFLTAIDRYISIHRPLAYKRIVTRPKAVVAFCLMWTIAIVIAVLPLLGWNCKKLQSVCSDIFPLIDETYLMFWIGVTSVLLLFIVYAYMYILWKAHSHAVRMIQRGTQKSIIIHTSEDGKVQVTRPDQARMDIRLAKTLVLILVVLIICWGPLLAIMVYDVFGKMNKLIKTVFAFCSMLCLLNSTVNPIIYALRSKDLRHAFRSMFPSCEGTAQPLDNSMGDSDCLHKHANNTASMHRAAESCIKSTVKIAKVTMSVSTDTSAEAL
T2 sequence (P28223 whole entry): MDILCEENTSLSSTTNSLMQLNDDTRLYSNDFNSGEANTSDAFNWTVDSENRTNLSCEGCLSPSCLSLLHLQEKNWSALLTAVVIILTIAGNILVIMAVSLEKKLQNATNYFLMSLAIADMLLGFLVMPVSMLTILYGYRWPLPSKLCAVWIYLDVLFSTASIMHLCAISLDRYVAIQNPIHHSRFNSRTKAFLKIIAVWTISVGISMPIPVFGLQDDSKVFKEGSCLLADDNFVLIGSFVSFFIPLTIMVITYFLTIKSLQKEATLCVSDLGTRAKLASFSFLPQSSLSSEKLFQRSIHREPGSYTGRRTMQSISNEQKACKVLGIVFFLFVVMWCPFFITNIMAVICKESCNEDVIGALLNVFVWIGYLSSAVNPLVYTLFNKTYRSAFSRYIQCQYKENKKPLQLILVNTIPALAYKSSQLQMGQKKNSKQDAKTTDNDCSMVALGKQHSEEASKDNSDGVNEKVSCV

CCCCCn1c2c(c3ccccc31)C[C@H](C(=O)N1CCCCC1)NC2 [NMP-140]
Rat 5-HT2C (%) primary radioligand competitive binding (rat 5-HT2C): -4.2%
Human 5-HT2A (%) primary radioligand competitive binding (human 5-HT2A): 11.2%
Ki (Human CB2 [1]): 2870 ± 515 nM
Human CB2 (%) primary radioligand competitive binding (Human CB2 [1]): 71.1%
Ki (Rat CB1): 1250 ± 290 nM
Rat CB1 (%) primary radioligand competitive binding (Rat CB1): 79.3%

CCCCCn1c2c(c3ccccc31)C[C@@H](C(=O)N1CCCCC1)NC2 [NMP-141]
Rat 5-HT2C (%) primary radioligand competitive binding (rat 5-HT2C): -8.4%
Human 5-HT2A (%) primary radioligand competitive binding (human 5-HT2A): 11.9%
Ki (Human CB2 [1]): 481 ± 52.9 nM
Human CB2 (%) primary radioligand competitive binding (Human CB2 [1]): 88.7%
EC50 (Human CB2 [2]; read-out: GTPγ[35S] functional assays Human CB2 EC50): 112 ± 3.3 nM
Emax (Human CB2 [2]; read-out: GTPγ[35S] functional assays Human CB2 Emax): 51.9%
Ki (Rat CB1): 906 ± 211 nM
Rat CB1 (%) primary radioligand competitive binding (Rat CB1): 88.6%
GTPγ[35S] functional assays Human CB1 EC50 (Human CB1): did not show any agonistic or antagonistic activities
